From BigSolDB 2.1

CC(C)[C@H](C)[C@@H](O)[C@H](O)[C@@H](C)[C@H]1CC[C@H]2[C@@H]3COC(=O)[C@H]4C[C@H](O)[C@H](O)C[C@]4(C)[C@H]3CC[C@]12C
solubility (mole fraction)
Settings	278.15 K	283.15 K	288.15 K	293.15 K	298.15 K	303.15 K	308.15 K	313.15 K	318.15 K	323.15 K
in THF	0.16	0.185	0.21	0.239	0.269	0.297	0.328	0.361	0.395	0.43
in acetone	0.09	0.106	0.124	0.145	0.166	0.188	0.213	0.239	0.267	0.296
in acetonitrile	0.00057	0.00067	0.00078	0.0009	0.00103	0.00118	0.00133	0.00149	0.00167	0.00186
in chloroform	0.00083	0.00095	0.00109	0.00125	0.00142	0.0016	0.00181	0.00204	0.00229	0.00256
in isopropanol	0.00031	0.00036	0.00041	0.00047	0.00054	0.00062	0.0007	0.0008	0.00091	0.00104
in methanol	0.0321	0.0377	0.0442	0.0511	0.0588	0.0675	0.077	0.0875	0.099	0.112
in n-butanol	0.00046	0.00054	0.00062	0.00071	0.00082	0.00093	0.00106	0.00121	0.00137	0.00155
in n-heptane	7e-05	0.0001	0.00014	0.00018	0.00022	0.00028	0.00033	0.00039	0.00046	0.00052
in n-hexane	9e-05	0.00012	0.00016	0.0002	0.00025	0.00031	0.00037	0.00044	0.00051	0.00059
